Measurements from patent US7531517B2, “Inhibitors of cancer cell, T-cell and keratinocyte proliferation” (4SC AG, priority 2005, dated 2009).

Molecular target: T1, human Proteasome (20S proteasome, chymotryptic activity) (Homo sapiens, UniProt P28074)
T1 construct: purchased Immatics, Tübingen
Experiment: chymotryptic activity of the 20S proteasome (Suc-LLVT-AMC substrate, fluorescence)
Format: biochemical
Settings: for human Proteasome IC50: given in words only
Experimental: The chymotryptic activity of the 20S proteasome (Immatics, Tüibingen) was determined using a Tecan Ultra plate reader and Suc-LLVT-AMC as substrate (Bachem). In the wells of a black 96 well polypropylene plate, 2 μl of the respective inhibitor dissolved in DMSO were mixed with 50 μl substrate solution (25 mM HEPES pH 7.5 at 20° C., 0.5 mM EDTA and Suc-LLVT-AMC (in the appropriate concentration) and the reaction was initiated by adding 150 μl proteasome solution (1.3 μg/ml 20S proteasome in 25 mM HEPES pH 7.5 at 20° C., 0.5 mM EDTA, 0.033% (w/v) SDS). Substrate hydrolysis was followed by fluorescence spectroscopy (excitation wavelength: 360 nm; emission wavelength: 465 nm) for 20 min at 30° C. and initial velocities were calculated and expressed as change in relative fluorescence units (RFU) per second.

Compound	IC50 (unit nm [sic])	human Proteasome IC50	other results
O=C1CN(/N=C/C(Cc2ccccc2)NC(=O)C(Cc2c[nH]c3ccccc23)NC(=O)C(Cc2c[nH]c3ccccc23)NC(=O)OCc2ccccc2)C(=O)N1 (stereo not drawn) [Compound 1]	157 nM	–	–
O=C1CN(/N=C/C(Cc2ccccc2)NC(=O)C(Cc2c[nH]c3ccccc23)NC(=O)C(Cc2c[nH]c3ccccc23)NC(=O)CCCCC2SCC3NC(=O)NC32)C(=O)N1 (stereo not drawn) [Compound 2]	–	–	IC50 (unit cell prints nM): 76 nM
O=C1CN(/N=C\C(Cc2ccccc2)NC(=O)C2C=Cc3cc(Cl)ccc3O2)C(=O)N1 (stereo not drawn) [Compound 11]	–	–	IC50 (unit μm [sic]): 3540 nM
COc1cc(C(=O)NC(/C=N/N2CC(=O)NC2=O)Cc2ccccc2)nc(OC)n1 (stereo not drawn) [Compound 14]	–	–	IC50 (unit μm [sic]): 2960 nM
O=C1CN(N=CC(Cc2ccccc2)NC(=O)C(Cc2ccc3ccccc3c2)NC(=O)C(Cc2ccc(Br)cc2)NC(=O)OCc2cccnc2)C(=O)N1 (stereo not drawn) [Compound 6]	–	nanomolar	–
O=C(/C=C/c1ccccc1)NC(/C=N\N1CC(=O)NC1=O)Cc1ccccc1 (stereo not drawn) [Compound 12]	–	–	IC50 (unit μm [sic]): 2210 nM
O=C1CN(/N=C/C(Cc2ccccc2)NC(=O)C(Cc2c[nH]c3ccccc23)NC(=O)C(Cc2c[nH]c3ccccc23)NC(=O)Cc2cccc(Oc3ccccc3)c2)C(=O)N1 (stereo not drawn) [Compound 3]	224 nM	–	–
O=C1CN(N=CC(Cc2ccccc2)NC(=O)C(Cc2ccc3ccccc3c2)NC(=O)C(Cc2ccc(Br)cc2)NC(=O)OCc2ccccc2)C(=O)N1 (stereo not drawn) [Compound 5]	–	nanomolar	–

More lines, main results first:

IC50 (unit nm [sic])	human Proteasome IC50	Compound	other results
61 nM	–	O=C1CN(/N=C/C(Cc2ccccc2)NC(=O)C(Cc2c[nH]c3ccccc23)NC(=O)C(Cc2c[nH]c3ccccc23)NC(=O)OCc2cccnc2)C(=O)N1 (stereo not drawn) [Compound 4]	–
133 nM	–	O=C1CN(/N=C/C(Cc2ccccc2)NC(=O)C(Cc2c[nH]c3ccccc23)NC(=O)C(Cc2c[nH]c3ccccc23)NC(=O)OCc2cnccn2)C(=O)N1 (stereo not drawn) [Compound 8]	–
–	nanomolar	O=C1CN(/N=C/C(Cc2ccccc2)NC(=O)C(Cc2ccc3ccccc3c2)NC(=O)C(Cc2ccc(F)cc2)NC(=O)OCc2ccccc2)C(=O)N1 (stereo not drawn) [Compound 9]	–
–	nanomolar	CC(C)(C)OC(=O)NC(Cc1ccc(Br)cc1)C(=O)NC(Cc1ccc2ccccc2c1)C(=O)NC(/C=N/N1CC(=O)NC1=O)Cc1ccccc1 (stereo not drawn) [Compound 7]	–
